Earlier results, collected in patent US20120183610A1, “GLUCOCORTICOID THERAPY” (priority 2009, published 2012).

Tests used:
[1] = dose equivalent to 20 mg hydrocortisone
[2] = 30 to 15 mg daily; after 3 months
[3] = after 2.3 to 6.8 months; mean dose reduced to 20.8±1.0 mg; p<0.01

## CC(=O)OCC(=O)[C@@]1(O)CC[C@H]2[C@@H]3CCC4=CC(=O)CC[C@]4(C)[C@H]3C(=O)C[C@@]21C [Cortisone acetate]
[1]
  Equivalent amount: 25 mg

## C[C@]12CCC(=O)C=C1CC[C@@H]1[C@@H]2[C@@H](O)C[C@@]2(C)[C@H]1CC[C@]2(O)C(=O)CO [Hydrocortisone]
[2]
  body weight and cardiovascular functional variables after dose reduction: no change in body weight or any of the cardiovascular functional variables studied
[1]
  Equivalent amount: 20 mg
11 patients with secondary adrenal insufficiency
  BMI before dose reduction: 31.5±1.1 kg/m^2
Dose reduced on average by 50%
  fasting glucose and insulin levels after dose reduction: unaffected
Dose reduced on average by 50%, 11 patients, follow-up 6-12 months
  body weight reduction, on average: 7.1 kg
Dose reduced on average by 50%, follow-up 6-12 months
  BMI after dose reduction: 29.4±1.0 kg/m^2
[3]
  serum concentration of osteocalcin at re-evaluation: 19.9 ng/mL

## C[C@@H]1C[C@H]2[C@@H]3C[C@H](F)C4=CC(=O)C=C[C@]4(C)[C@H]3[C@@H](O)C[C@]2(C)[C@@]1(O)C(=O)CO [Paramethasone]
[1]
  Equivalent amount: 2 mg

## C[C@]12C=CC(=O)C=C1CC[C@@H]1[C@@H]2[C@@H](O)C[C@@]2(C)[C@H]1CC[C@]2(O)C(=O)CO [Prednisolone]
[1]
  Equivalent amount: 5 mg

## C[C@]12C=CC(=O)C=C1CC[C@H]1[C@@H]3C[C@@H](O)[C@](O)(C(=O)CO)[C@@]3(C)C[C@H](O)[C@@]12F [Triamcinolone]
[1]
  Equivalent amount: 4 mg
